Data: paper PMC12463534, “Exploring the Anticancer Properties of 4-Phenylthiazole-Based Ru(II) and Os(II) Metallacycles Featuring 1-Methylimidazole as N-Donor Functionality” (Bioinorganic Chemistry and Applications, 2025)

Experiments:
SW480 cancer cells = test: Cellular accumulation (ICP-MS) in SW480 cells; details: 50 μM, 0.5% DMF in MEM, SW480, exposure time 2 h
Protocol: (§1) As the coordinated p-cym and leaving groups are present in all synthesized complexes, we focused on the differently substituted 4-phenylthiazoles for estimated changes in lipophilicity.
Cellular accumulation of the compounds was studied based on a method described previously with modifications. 1.8 × 10^5 SW480 cells per well were seeded in aliquots of 1 mL of complete MEM (see above) into 12-well plates (CytoOne, tissue culture treated, Starlab) and incubated at 37°C for 24 h. Then, cells were exposed for 2 h at 37°C to 50 μM solutions of the test compounds (containing 0.5% DMF) in fresh 0.5 mL of complete MEM upon exchange of the medium. Afterward, cells were washed three times with 1 mL PBS per well, lysed with 0.4 mL sub-boiled HNO3 per well for 1 h at room temperature, and 0.3 mL of each sample was diluted with 7.7 mL Milli-Q water. Adsorption/desorption controls were prepared in the same manner in cell-free wells. Ruthenium content was quantified by ICP-MS using an ICP-quadrupole MS Agilent 7800 instrument (Agilent Technologies, Waldbronn, Germany) as described previously.

[1] = test system: SW480 colon adenocarcinoma cells; test: MTT assay, inhibition of cancer cell growth, SW480; details: read-out: 50% inhibitory concentration SW480, exposure time 96 h
Protocol: CH1/PA-1 ovarian teratocarcinoma cells (CH1, RRID: CVCL_4992, provided by L. R. Kelland, CRC Center for Cancer Therapeutics, Institute of Cancer Research, Sutton, UK; confirmed by STR profiling as PA-1 ovarian teratocarcinoma cells at Multiplexion, Heidelberg, Germany), SW480 colon adenocarcinoma (RRID: CVCL_0546), and A549 lung adenocarcinoma cells (NCI-H2618, RRID: CVCL_A549; both cell lines were obtained from the American Type Culture Collection (ATCC), Manassas, VA, USA) were grown as adherent cultures in 75-cm^2 culture flasks (Starlab, Hamburg, Germany) by using minimal essential medium (MEM) supplemented with 1 mM sodium pyruvate, 4 mM L-glutamine, 1% (v/v) nonessential amino acids from 100-fold stock (all purchased from Sigma-Aldrich), and 10% heat-inactivated fetal bovine serum (Serana, Pessin, Germany).
The 3-(4,5-dimethylthiazol-2-yl)-2,5-diphenyl-2H tetrazolium bromide (MTT, Acros Organics, Geel, Belgium) assay was used to detect the cytotoxicity of the compounds after 96-h incubation. For this purpose, cells were harvested from culture flasks by trypsinization, seeded in 100-μL aliquots into 96-well microculture plates (Starlab, UK) in densities of 1 × 10^3 (CH1/PA-1), 2 × 10^3 (SW480), and 3 × 10^3 (A549) cells per well and incubated for 24 h prior to exposure to the test compounds. Stock solutions of test compounds were prepared in DMF, which were then diluted in MEM (not to exceed a final content of 0.5% v/v of organic solvent in the test plates), and serial dilutions were added in aliquots of 100 μL per well. […] After incubation for 4 h, the medium/MTT mixtures were removed, and the produced formazan crystals were dissolved in 150 μL DMSO per well. Optical densities at 550 nm were measured spectrophotometrically with a ELx808 Absorbance Microplate Reader (Bio-Tek, Winooski, VT, USA) by using a reference wavelength of 690 nm to correct for unspecific absorption.

[2] = test system: G4 forming sequences (h-Telo, bcl2, hTERT, Kit1, Kit2) and dsDNA; test: FRET melting assay, G-quadruplex / B-DNA interaction; type: binding, human; details: 60 mM potassium cacodylate pH 7.4, 2 h incubation
Protocol: G4s are DNA secondary motifs that play crucial roles in cancer development. […] The complexes were incubated with different G4 forming sequences: one derived from human telomere-forming (h-Telo) and four corresponding to promoter regions of oncogenes, namely, bcl2, hTERT, Kit1, and Kit2. For comparison, a self-complementary sequence called dsDNA was used to represent B-DNA (Table S2).
FRET experiments were conducted using an Applied Biosystems QuantStudio 6 PCR cycler in a 96-well format equipped with a FAM (6-carboxyfluorescein) filter. Oligonucleotide stock solutions, labelled with FAM and TAMRA (6-carboxytetramethylrhodamine) probes, were diluted to the desired concentration in a 60-mM potassium cacodylate buffer (pH 7.4). To fold the oligonucleotides into their B-DNA or G4 topologies, the solutions were heated to 95°C for 5 min and then allowed to cool slowly to room temperature overnight. The final concentration of the oligonucleotides was 0.2 μM, with a total volume of 30 μL in each well. Metal complexes were dissolved in DMF to prepare 2 mM stock solutions and further diluted with the buffer, where DMF concentration never exceeded 0.05%. Mixtures of oligonucleotides and metal compounds were left at room temperature for 2 h. Data were collected twice, each time in duplicate, over a temperature range of 25°C–95°C, with a ramp of 1°C every 30 s. FAM emission data were normalized from 0 to 1 to compare different datasets. After data normalization, we extrapolated the T1/2 values, i.e., the temperature at which normalized FAM emission is 0.5. The DNA concentration is expressed in strands.

[3] = Conditional stability constant of Ru-MeIm bond and speciation modelling (pH-dependent UV-vis, HypSpec); type: physicochemical
Protocol: Calculation was done with HypSpec software based on the pH-dependent UV–vis spectra recorded after 3 days (Figures S27, S28). With the help of the computed constant, it was possible to model the speciation at various concentrations. […] At pH 6.0, a condition more characteristic of solid tumor tissues, the MeIm ligand tends to dissociate to a greater extent and only 44% and 76% of the original complex is found in solution at 0.1 and 1 μM concentrations, respectively.
The average water ionization constant, pKw, was determined as 13.76 ± 0.01, which is in good agreement with literature data. The initial volume of the samples was 15.0 mL. The complex concentration was 100 or 157 μM at an ionic strength of I = 0.1 M (KCl). Samples were degassed by bubbling purified argon through them for about 10 min prior to the measurements, and the inert gas was also passed over the solutions during the titrations. 0.70-mL batch samples were collected between pH 1 and 11; these samples were kept in dark, and after 2 and 3 days, their pH was remeasured, and the UV–vis spectra were recorded as well. Only small differences were observed between the 2- and 3-day spectra, and always, the 3-day samples were used for further evaluation. The conditional stability constant for 3c was calculated based on the following equilibrium: [RuCym(N,C)(Z)]^(1+n) + MeIm ⇌ [RuCym(N,C) (MeIm)]^+ + Z^n; (Z = Cl^– or H2O; n = −1 or 0). The calculation was done with the HypSpec software. […] The calculated stability constant is a conditional value and applies for I = 0.1 M KCl ionic strength.

Balb/c mice = test: Toxicity experiments in Balb/c mice (MTD); details: mice, i.p.
Protocol: Finally, we were interested in the anticancer activity of selected complexes of our panel in an in vivo mouse setting. Before injecting the compounds in tumor-bearing mice, toxicity experiments were performed. […] On the last day of therapy, most animals were sacrificed and tissues as well as tumors collected. Only four mice (per group) were kept to get information on the impact of the drugs on the overall survival.

Solubility in 1% DMF/PBS = test: Solubility in 1% DMF/PBS
Description: Solubility is an important factor for the application of metallodrugs. DMF was used as solubilizer to allow comparison to the respective chlorido complexes where the usage of DMSO would lead to stable DMSO adducts.
as §1

With Cc1ccc(C(C)C)cc1.Cn1cc[n+]([Ru-]2[c]3cc(S(C)(=O)=O)ccc3-c3csc[n+]32)c1.O=[N+]([O-])[O-] [Compound 3c, [((3-κN)-1-Methylimidazole)(4-(4-(methylsulfonyl)phenyl)thiazolato-κN,κC2′)(η^6-p-cymene)ruthenium(II)] Nitrate] the “Cellular accumulation, fg Ru/cell” value (SW480 cancer cells) was 4.6 ± 0.6 fg Ru/cell, the IC50 [1] was > 200 µM and the “Stabilization of oligonucleotides (G4s or B-DNA)” value [2] was “No stabilization”. The “Conditional stability constant logK′ of Ru(p-cym)-MeIm bond” value ([3]; I = 0.1 M KCl, 25°C, UV-vis spectra after 3 days, HypSpec) was 8.31 ± 0.03, the “Original complex found in solution” value ([3]; pH 6.0, 0.1 μM complex, modelled from logK′) was 44% and the “Original complex found in solution” value ([3]; pH 6.0, 1 μM complex, modelled from logK′) was 76%. The “Intact (nondissociated) complex fraction” value ([3]; pH 7.4, 0.1 μM complex, modelled from logK′) was 78%, the “Stability of complex by modelled speciation” value ([3]; pH 7.4, 1 μM and 10 μM complex concentrations) was “stable” and the Tolerated dose (Balb/c mice) was “at least 50 mg/kg”. For the same molecule, the Solubility (Solubility in 1% DMF/PBS) was 24.6 mM.
